Reference: US20240139149A1, “THERAPEUTIC USES OF UROLITHIN DERIVATIVES” (Vandria SA, priority 2022, published 2024)
Entries after “also recorded” stand apart in the source; their conditions may differ.

Test system: splenic murine T cells
Experiment: Murine T cells stimulated with αCD3/αCD28 in presence of UA
Assay type: cell-based
Procedure: Splenic murine T cells were isolated from mice aged 6-20 weeks by negative selection with EasySep mouse T cell isolation kit (Stem cell) according to the manufacturer's instructions. To monitor T cell proliferation, purified T cells were loaded with CellTrace Violet (C34557 ThermoFisher Scientific). T cell activation was initiated using αCD3/CD28 activation beads (11456D; ThermoFisher Scientific) at a ratio of 25 μl dynabeads per 0.5×106 T-cells. Cells were activated with 25-50 μM Urolithin A (Tocris) or DMSO in T cell activation Medium (RPMI (ThermoFisher Scientific) 10% FBS (South America origin), 10 mM Hepes (Sigma), 1×Non-Essential Amino Acid, 1 mM Sodium Pyruvate, 50 µM β-Mercaptoethanol, 100 U/mL penicillin, 100 μg/mL streptomycin and 2 mM Glutamax (ThermoFisher Scientific) for the indicated durations. In selected experiments, cells were stimulated in the presence of inhibitors, namely TCFli (ICG-001; SelleckChem; […]) and PGC-lai (SR-18292, Sigma-Aldrich; […]). For subsequent analysis, activating beads were magnetically removed prior antibody staining. For human T cells, peripheral blood mononuclear cells were purified with a Ficoll-Paque (GE healthcare) gradient. T cells were enriched with EasySep Human T Cell Isolation Kit (StemCell) and activated with dynabead Human T-Activator CD3/CD28 for T Cell Expansion and Activation Kit (11131D; ThermoFisher Scientific), similar to murine T cell stimulation. When the subsequent activation and expansion of CAR T cells was studied, plates were coated with 1 μg/mL anti-human CD3 (αCD3; clone OKT3) and thawed PBMC were cultivated with […] anti-human CD28 (αCD28; 15E8, both Miltenyi Biotec) containing media for three days. (NutriT media (4Cell® Nutri-T media (Sartorius) containing 0.5% penicillin/streptomycin) supplemented with IL-7 (25 U/mL) and IL-15 […] (all Miltenyi Biotec)).
Tumors were minced and digested with Tumor & Tissue Dissociation Reagent (BD Horizon) for 30 min. The remaining organ pieces were filtered through a 70 µm cell strainer. Cells were then washed with PBS 1% BSA and 2 mM EDTA. Immune cells were enriched on a 30%/40%/75% Percoll gradient after a 1700 rpm 17 min centrifugation. Then, tumor immune filtrates or activated T cells were stained with Fixable Viability Dye-eF780 (65-0865-14; eBioscience), αCD45-FITC (30-F11; 11-0451-85; eBioscience), αCD11b-BV650 (M1/70; 56340; BD) α-CD11c-BV785 (HL3; 563735; BD), aLy6G-BV605 (53-6.7; 563005; BD), aLy6C-AF700 (HK1.4; 128024; Biolegend), aF4/80-PE (BM8; 12-4801-82, eBioscience), aPD-L1-PECy7 (MIH5; 25-5982-80, eBioscience); or with Fixable Viability Dye-eF780 (ebioscience), αCD45-BV786 (30-F11; 564225; BD), αCD4-BUV496 (GK1.5; 564667; BD), αCD8-BV605 (100744; Biolegend), aPD1-APC (J43; 17-9985-82; eBioscience), aTIM-3-PECy7 (RMT3-23; 119715; Biolegend), aCTLA4-PE (UC10-4B9; 106305; Biolegend) and aLag3-BV421 (C9B7W; 125221, Biolegend); or with Fixable Viability Dye-eF780 (eBioscience), αCD4-FITC (H129.19; 553650; BD), αCD8-APC (53-6.7; 17-0081-83; eBioscience), αCD44-AF400 (IM7; 103026; Biolegend), αCD62L-BV785 (MEL-14; 104440; Biolegend), αSca-1-PerCP-Cy5.5 (D7; 45-5981-82; eBioscience), αCD95-PE (Jo2; 554258; BD); or with Fixable Viability Dye-eF780 (eBioscience), αCD8-BV650 (53-6.7; 563234; BD), αCD4-BUV496 (GK1.5; 564667; BD), αCD127-APC (A7R34; 17-1271-82; eBioscience), αCD95-FITC (SA367H8;152605; Biolegend), αCD44-AF400 (IM7; 103026; Biolegend), αCD62L-BV785 (MEL-14; 104440; Biolegend), αSca-1-PerCP-Cy5.5 (D7; 45-5981-82; eBioscience) followed by intracellular staining of aTCF1-PE (S33-966; 564217; BD), or PGC-1α (sc-518025; D-5; santa cruz), or aCyclinD1 (MA5-28534, DCS-6; Invitrogen) with transcription factor buffer set kit (BD Biosciences). To study cytokine expression, tumor immune infiltrates were stimulated ex vivo with 20 ng/mL PMA and […] Ionomycin (Sigma) for 3 h in T cell activation medium with Brefeldin A (Biolegend). […]

## O=c1oc2cc(O)ccc2c2ccc(O)cc12 [UA, Urolithin A]
6 h, UA 50 μM
  lysosome formation in CD8+ T cells: enhanced
6 h, UA 50 μM vs vehicle
  phosphorylation of Stat1: equal phosphorylation
24 h, UA 50 μM
  Parkin protein expression: stabilized
48 h, UA 50 μM
  PGC-1α in Pink1−/− or Pgam5−/− CD8+ T cells: failed to enhance
  cyclin D1 expression: reduced
72 h
  CD8+ T cell division / proliferation: restricted; also recorded: restricts T cell proliferation
CD8+ T cells, αCD3/αCD28
  central memory cells (TCM): reduction
  frequency of effector memory cells (TEM): remained unaltered
  naïve CD44loCD62Lhi T cells: significant increase
CD8+ T cells, αCD3/αCD28, up to 72 hours
  number of CD44-CD62L+Sca1hi TSCM: significantly increased
Pgam5−/− CD8+ T cells
  UA-dependent expansion of CD44-CD62L+Sca1Hi TSCM cells in Pgam5−/− T cells: blocked
Pink1−/− CD8+ T cells, presence of UA
  TSCM phenotype in Pink1−/− CD8+ T cells: failed to exhibit a TSCM phenotype
Pink1−/− T cells
  UA-induced lysosome formation and decrease in mitochondrial content in Pink1−/− T cells: prevented
RNA sequencing, 48 hours
  expression of genes that code for immune checkpoints and effector molecules: reduced
After 6 hours
  β-catenin phosphorylation: marked decrease
After 24 hours
  mitochondrial content in CD8+ T cells: loss of mitochondrial content in a dose-dependent manner
Prolonged UA administration in vitro (48 h, 50 μM)
  PGC-1α expression: marked upregulation
qPCR, 24 h after stimulation
  transcription of Wnt target genes: increased transcription
sub-cellular fractionation immunoblot and immunofluorescence, 6 h
  Pgam5 localization: rapidly released into the cytoplasma
Various concentrations of UA
  T cell death in vitro: dose-dependent T cell death
Within six hours after UA administration
  mitochondrial membrane potential in CD8+ T cells: reduction
αCD3/αCD28
  TSCM formation in CD4+ cells: did not promote enhanced TSCM formation
αCD3/αCD28 beads, 48 h
  differentiation into effector T cells (Granzyme B, IFNγ): blocked
αCD3/αCD28 stimulated T cells, 24 h, UA 50 μM
  Atg5, Atg7, p62, Lamp2 and Pink1 gene expression: significant upregulation
